Laboratory results as given in publication PMC10447287, “Optimisation of Pharmaceutical Cocrystal Dissolution Performance through a Synergistic Precipitation Inhibition” (Pharmaceutical Research, 2023).

Tests used:
Format in all cases: physicochemical
[1] = Dissolution tests of powder mixtures of FFA-NIC cocrystal with polymers in PBS pH 4.5 (non-sink); conditions: for incongruent indicator k(t) (molar FFA/NIC in solution): PBS pH 4.5, neat cocrystal; for FFA DPP: reference neat cocrystal in PBS pH 4.5
Protocol: Similarly, in vitro dissolution tests of the powder mixtures of 71.7 mg of the FFA-NIC cocrystals with an individual polymer or a combination in PBS pH 4.5 or PBS pH 6.8 were conducted in triplicate. […], 400 mg of PEG, […], corresponding to their predissolved concentrations used in Section "Dissolution Tests of FFA, the Neat FFA-TP Cocrystal or FFA-NIC Cocrystal Powders in DDW in the Absence and Presence of a Predissolved Polymer or a Combination".
The solid residues obtained from the experiments in PBS pH 4.5 were dried at room temperature and analysed by PXRD.
(§1) DPP was used to evaluate the dissolution profile of the test powders in comparison to a reference system, which is defined as,4 DPP=AUCC(t)-AUCCR(t)/AUCCR(t)×100% where AUCC(t) is the area under the curve (AUC) of a dissolution profile C(t) , indicating the amount of drug dissolved is maintained over the period of the dissolution time from 0 to t, and AUCCR(t) is the AUC of a reference dissolution profile CR(t) .
(§2) The solids were scanned by D2 phaser diffractometer (Bruker U.K. Limited, Coventry, UK) with […] radiation operating at voltage of 30 kV and current of 10 mA. The scanning angle ranged from 2°-40° of 2θ. The scanning time per step was 0.4 s. The scan step size was 0.02° of 2θ.

[2] = Dissolution tests of powders in DDW with predissolved polymer or combination (USP type II paddle); conditions: for incongruent indicator k(t) (molar FFA/NIC in solution): neat cocrystal
Protocol: In vitro dissolution tests were performed with a USP type II paddle apparatus (DT 126 light, Erweka GmbH, Germany) at 37 ± 0.5°C with a paddle speed of 50 rpm in 400 mL of DDW in the absence and presence of a predissolved polymer (i.e., 0.2 mg/mL of PVP-VA, 1 mg/mL of PEG, 0.2 mg/mL of SLP) or a combination of two polymers (i.e., 0.2 mg/mL PVP-VA + 1 mg/mL PEG, […]).
71.7 mg of FFA-NIC cocrystal powders with the equivalent of 50 mg FFA I powders were used in each of the dissolution tests. Samples of 1 ± 0.1 mL were withdrawn from the dissolution vessel at the predefined time points of 5, 10, 15, 30, 60, 120, 180 and 240 min. The supernatant of each of the samples was separated from the excess solids by centrifugation at 13,000 RPM for 1 min in an MSE Micro Centaur. HPLC was used to determine the concentrations of FFA and NIC in solution. Solid residues obtained from the experiments were dried at room temperature and analysed by PXRD. All experiments were repeated in triplicate.
For comparison, the above dissolution tests were also repeated using 50 mg of pure FFA I powders and 82.0 mg of FFA-TP cocrystal powders.
as §1, §2

[3] = Particle size distribution of sieved powders; conditions: sieved particles < 250 μm
Protocol: All samples (i.e., FFA, FFA-NIC cocrystal and FFA-TP cocrystal) used in the dissolution tests were slightly ground by a mortar and pestle and sieved by a 60-mesh sieve (below 250 μm) to reduce the influence of particle size on the dissolution rates. The particle size distributions of the test samples were measured using a SYNC Analyzer (MICROTRAC Retsch GmbH, Hann, Germany). The particle size distributions (D10, D50, D90 and mean particle size) of the solid particles were compared. The data were analysed by the Microtrac FLEX software (12.0.0.1).

[4] = Dissolution tests of powder mixtures of FFA-NIC cocrystal with polymers in PBS pH 6.8 (sink); conditions: for FFA DPP: reference neat cocrystal in PBS pH 6.8; for incongruent indicator k(t) (molar FFA/NIC in solution): PBS pH 6.8, sink conditions
Protocol: Similarly, in vitro dissolution tests of the powder mixtures of 71.7 mg of the FFA-NIC cocrystals with an individual polymer or a combination in PBS pH 4.5 or PBS pH 6.8 were conducted in triplicate. The amount of a polymer used in the powder mixture was 80 mg of PVP-VA, 400 mg of PEG, or 80 mg of SLP, corresponding to their predissolved concentrations used in Section "Dissolution Tests of FFA, the Neat FFA-TP Cocrystal or FFA-NIC Cocrystal Powders in DDW in the Absence and Presence of a Predissolved Polymer or a Combination".
as §1

[5] = DDW, combination of predissolved PVP-VA and PEG
[6] = DDW, no polymer, powder dissolution

NC(=O)c1cccnc1.O=C(O)c1ccccc1Nc1cccc(C(F)(F)F)c1 [FFA-NIC cocrystal]
solid residues after dissolution tests (PXRD) ([1]; PBS pH 4.5, groups SLP (0.1 mg/mL) + PVP-VA (0.4 mg/mL) and SLP (0.2 mg/mL) + PVP-VA (0.8 mg/mL)): FFA-NIC cocrystals were also found in the solid residues
incongruent indicator k(t) (molar FFA/NIC in solution) ([1]; at 5 min): 0.03
incongruent indicator k(t) (molar FFA/NIC in solution) ([1]; at 60 min): 0.07
FFA DPP ([1]; PBS pH 4.5, powder mixture with PEG (1 mg/mL) + PVP-VA (0.2 mg/mL)): 36%
FFA DPP ([1]; PBS pH 4.5, powder mixture with PEG (1 mg/mL)): 11%
FFA concentration at the end of the test ([1]; PBS pH 4.5, powder mixture with PVP-VA): 17.38 µg/mL
FFA DPP ([1]; PBS pH 4.5, powder mixture with PVP-VA (0.2 mg/mL)): 92%
maximum supersaturated FFA concentration ([1]; PBS pH 4.5, powder mixture with PVP-VA, at 60 min): 19.65 µg/mL
FFA DPP ([1]; PBS pH 4.5, powder mixture with SLP (0.1 mg/mL) + PVP-VA (0.4 mg/mL)): 150%
FFA DPP ([1]; PBS pH 4.5, powder mixture with SLP (0.2 mg/mL) + PVP-VA (0.2 mg/mL)): 159%
FFA DPP ([1]; PBS pH 4.5, powder mixture with SLP (0.2 mg/mL) + PVP-VA (0.4 mg/mL)): 179%
FFA DPP ([1]; PBS pH 4.5, powder mixture with SLP (0.2 mg/mL) + PVP-VA (0.8 mg/mL)): 204%
FFA DPP ([1]; PBS pH 4.5, powder mixture with SLP (0.2 mg/mL)): 2%
solid residues after dissolution tests (PXRD) ([1]; all dissolution tests in PBS pH 4.5): FFA III solids were crystallised
solid residues after dissolution tests (PXRD) ([2]; DDW in the absence or presence of predissolved polymers): FFA III
FFA concentration at 240 min [2, 5]: 11.44 µg/mL
maximum FFA concentration [2, 5]: 14.28 µg/mL
time to generate supersaturated state of FFA concentration [2, 5]: ≤ 5 min
solid residues after dissolution tests (PXRD) ([2]; DDW, combinations of predissolved PVP-VA and SLP at various concentrations except SLP (0.2 mg/mL) + PVP-VA (0.8 mg/mL)): FFA III alone
incongruent indicator k(t) (molar FFA/NIC in solution) ([2]; DDW, at 5 min): 0.06
incongruent indicator k(t) (molar FFA/NIC in solution) ([2]; DDW, at 60 min): 0.08
FFA concentration reached within 60 min [2, 6]: 10.23 µg/mL
FFA concentration, constant level after 60 min [2, 6]: 10.78 µg/mL
time for FFA concentration to reach aqueous equilibrium solubility ([2]; DDW, predissolved 0.2 mg/mL PVP-VA): ≤ 15 min
maximum FFA concentration ([2]; DDW, predissolved 0.2 mg/mL PVP-VA, at 60 min): 12.93 µg/mL
FFA DPP (dissolution performance parameter) ([2]; DDW, predissolved PEG (1 mg/mL), 0-4 h, reference same powder in DDW): -7%
FFA DPP (dissolution performance parameter) ([2]; DDW, predissolved PVP-VA (0.2 mg/mL), 0-4 h, reference same powder in DDW): 19%
NIC release from cocrystal powders ([2]; DDW, predissolved PVP-VA or its combination with PEG or SLP): released completely
FFA concentration in solution after 4 h ([2]; DDW, predissolved SLP (0.2 mg/mL)): 26.18 µg/mL
FFA DPP (dissolution performance parameter) ([2]; DDW, predissolved SLP (0.2 mg/mL) + PVP-VA (0.1 mg/mL), reference DDW): 112%
FFA DPP (dissolution performance parameter) ([2]; DDW, predissolved SLP (0.2 mg/mL) + PVP-VA (0.2 mg/mL), 0-4 h, reference same powder in DDW): 160%
FFA DPP (dissolution performance parameter) ([2]; DDW, predissolved SLP (0.2 mg/mL) + PVP-VA (0.3 mg/mL), reference DDW): 296%
FFA DPP (dissolution performance parameter) ([2]; DDW, predissolved SLP (0.2 mg/mL) + PVP-VA (0.4 mg/mL), reference DDW): 345%
FFA DPP (dissolution performance parameter) ([2]; DDW, predissolved SLP (0.2 mg/mL) + PVP-VA (0.8 mg/mL), reference DDW): 310%
solid residues after dissolution tests (PXRD) ([2]; DDW, predissolved SLP (0.2 mg/mL) and PVP-VA (0.8 mg/mL)): mixtures of FFA III and FFA-NIC cocrystal
FFA DPP (dissolution performance parameter) ([2]; DDW, predissolved SLP (0.2 mg/mL), 0-4 h, reference same powder in DDW): 67%
NIC release from cocrystal powders ([2]; DDW, single polymer of PEG or SLP): not complete
solid residues after dissolution tests (PXRD) ([2]; SLP predissolved DDW): both FFA III and FFA-NIC cocrystal
D10 [3]: 6.08 μm
D50 [3]: 13.77 μm
D90 [3]: 33.97 μm
Mean particle size [3]: 17.63 μm
solid residues after dissolution ([4]; PBS pH 6.8, 37°C, after 4 h): no solid residue
FFA DPP ([4]; PBS pH 6.8, powder mixture with PVP-VA (0.2 mg/mL)): 11%
FFA DPP ([4]; PBS pH 6.8, powder mixture with PVP-VA (0.4 mg/mL)): 7%
incongruent constant k(t) ([4]; PBS pH 6.8, powder mixture with PVP-VA, at 60 min): > 0.94
FFA DPP ([4]; PBS pH 6.8, powder mixture with SLP (0.1 mg/mL) + PVP-VA (0.4 mg/mL)): 8%
FFA DPP ([4]; PBS pH 6.8, powder mixture with SLP (0.2 mg/mL) + PVP-VA (0.2 mg/mL)): 6%
FFA DPP ([4]; PBS pH 6.8, powder mixture with SLP (0.2 mg/mL) + PVP-VA (0.4 mg/mL)): 9%
FFA DPP ([4]; PBS pH 6.8, powder mixture with SLP (0.2 mg/mL)): -0.1%
incongruent indicator k(t) (molar FFA/NIC in solution) ([4]; at 5 min): 0.75
incongruent indicator k(t) (molar FFA/NIC in solution) ([4]; at the end of dissolution): 0.94
